“Also recorded” adds a separate entry of the source.
Assays:
[1] = system: BBN-induced mouse bladder tumor organoids; assay: Growth of BBN-induced mouse bladder tumor organoids treated with SAG or FK506; type: cell-based; conditions: reconstituted mouse tumor organoids with stroma
[2] = system: patient-derived bladder tumor organoids; assay: Growth of patient-derived bladder tumor organoids with or without tumor stroma treated with Hh or Bmp agonist; type: cell-based, human; conditions: 300 nM SAG, 7 days
Procedure: Tumor tissues obtained from patients were washed with DPBS, and then washed twice with DMEM supplemented with 10% FBS. The washed tumors were minced and incubated in DMEM containing 10% FBS and collagenase I and II (20 mg/mL each) at 37° C. for 1 hour and ground for 5 minutes every 30 minutes. The isolated tissues were spun down at 1,500 rpm for 5 minutes, resuspended in ACK lysis buffer, and then incubated for 5 minutes at room temperature. Dissociated clusters were washed with DMEM containing 10% FBS and filtered through a 100 μm cell strainer. The dissociated cell clusters were spun down, resuspended in Matrigel (Growth Factor reduced) and plated in the middle of one well of a 6-well plate. The plated drop was solidified in an incubator at 37° C. for 15 minutes, and a 2.5 mL organoid medium [advanced DMEM/F-12 supplemented with 10 mM HEPES (pH 7.4), 10 mM nicotinamide, 1 mM N-acetyl-L-cysteine, GlutaMAX, 1% penicillin/streptomycin, 50 ng/mL mouse EGF, 0.5×B-27, 1 mM A8301 and 10 mM Y-27632] was added to the well. The medium was replaced once every 2 to 3 days. For passaging, 1 mg/mL collagenase/dispase was added to the medium, followed by incubation for 1 hour at 37° C. to digest the Matrigel. Subsequently, organoids were centrifuged at 1,500 rpm for 3 minutes, washed with PBS, and then spun down. Then, 0.05% trypsin-EDTA (Welgene) was added, organoids were incubated at 37° C. for 5 minutes, followed by mechanical grinding into small cells by pipetting. The organoids were passaged in a 1:3 or 1:4 ratio every 1 to 2 weeks.
To generate patient-derived tumor organoids with stroma, human tumor organoids were cultured for 10 days, and mixed with stromal components containing patient-derived CAFs and HULECs at concentrations of 5×10^4 cells/μL and 4×10^3 cells/μL, respectively, in Matrigel. And then, 5 μL drops of tumor organoids with stroma were cultured in an organoid medium in a spinning bioreactor for 7 days. […]

[3] = system: three-layered miniature bladders; assay: Cell proliferation in three-layered miniature bladders under Hh pathway manipulation; type: cell-based, mouse; conditions: 50 μM Vismodegib or 100 nM SAG vs DMSO, 7 days
Procedure: (§1) To generate normal bladder organoids with stroma, normal bladder organoids cultured for a long time (>6 months) were mixed with mouse embryonic fibroblasts (MEFs) and endothelial cells (HULEC, ATCC) at 3.75×10^4 cells/μL and 5×10^3 cells/μL, respectively, along with 3 to 4 μL of Matrigel. Before additional analysis, these bladder organoids with stroma were cultured in an organoid medium in a spinning bioreactor for 7 days. The 12-well version of the spinning bioreactor was manufactured by 3D printing according to the method described in Qian, X. et al. Brain-Region-Specific Organoids Using Mini-bioreactors for Modeling ZIKV Exposure. Cell 165, 1238-1254, doi:10.1016/j.cell. 2016.04.032 (2016). In brief, individual components such as a plate cover (Project MJP 2500, 3D Systems, USA), a rotating shaft (Single Plus, Cubicon, Korea), a fixed rod (Single Plus, Cubicon, Korea) and a gear (Single Plus, Cubicon, Korea) were printed using a 3D printer in a stackable version, and the components were assembled to manufacture a spinning bioreactor. […]
(§2) Normal bladder organoids were treated with 50 μM Vismodegib (Abmole), 100 nM SAG (Millipore) or DMSO and cultured in a spinning bioreactor for 7 days. […] Capase-3/7-stained cells in the bladder tumor organoids were counted based on green fluorescence signals, and dose-response curves were generated using GraphPad Prism ver.6. […]

[4] = system: reconstituted bladder organoids with stroma; assay: Cell proliferation in reconstituted bladder organoids with stroma under Hh pathway manipulation; type: cell-based, mouse; conditions: 50 μM Vismodegib or 100 nM SAG vs DMSO, 7 days
Procedure: as §1, §2

[5] = system: 3D bioprinted patient-derived bladder tumor organoids; assay: Tumor growth of 3D bioprinted patient-derived bladder tumor organoids treated with SAG or FK506; type: cell-based, human
Procedure: Tumor cells derived from patient-derived bladder tumor organoids were embedded in 40 μL Matrigel at a density of 5×10^5 cells/mL, and cultured in an organoid culture medium for 10 days. To prepare a bio-ink mixture for the reconstitution of tumor organoids with stroma by 3D bioprinting, 6 wells containing the embedded tumor organoids were treated with 0.5 mg/mL of a collagenase/dispase solution at 37° C. for 30 minutes, washed and centrifuged. The collected organoids were resuspended in 1 mL Matrigel (Growth Factor Reduced) containing patient-derived CAFs and HULECs at 4×10^7 cells/mL and 4×10^6 cells/mL, respectively. The reconstituted bio-ink was put into a sterilized 10 mL syringe with a 20-gauge needle, and stored on ice for less than 5 minutes before printing. A jet-type 3D printer (in vivo, Rokit, Korea) was used to reconstitute tumor organoids with stroma as described above. A G-code based script was written by Creator K software (Rokit, Korea) to print a 5×6 array of 10 μL drops. Each drop was dispensed on a parafilm at 8-mm intervals by extrusion. […]

[6] = system: 3D bioprinted patient-derived bladder tumor organoids; assay: Tumor cell apoptosis (caspase3) in 3D bioprinted patient-derived bladder tumor organoids treated with cisplatin; type: cell-based, human; conditions: luminal and basal tumor-derived printed tumor organoids
Procedure: Normal bladder organoids were treated with 50 μM Vismodegib (Abmole), 100 nM SAG (Millipore) or DMSO and cultured in a spinning bioreactor for 7 days. Bladder tumor organoids were treated with 300 nM SAG, 5 μM FK506 (Cayman Chemical) or DMSO, and cultured in a spinning bioreactor for 7 days. Human bladder tumor organoids were cultured in an organoid medium for 7 days in a spinning bioreactor before treatment with chemotherapeutic drugs. Subsequently, tumor organoids were cultured for 48 hours in the presence of cisplatin (0, 0.2, 0.5, 1, 2, 5, 10, 50 and 100 μm, Sigma), gemcitabine (0, 0.2, 0.5, 1, 2, 5, 10, 50 and 100 μM, Sigma) or mitomycin C (0, 0.2, 0.5, 1, 2, 5, 10, 50 and 100 μM, Sigma). To produce dose-response curves for the three chemotherapeutic drugs, cell viability was assayed using a CellEvent™ Caspase-3/7 Green Detection Reagent (Thermo Fisher) according to the manufacturer's instructions. Forty-eight hours after treatment with cell therapeutic agent, bladder tumor organoids were fixed in 4% PFA at 4° C. for 15 minutes, washed with PBS three times, cultured in 30% sucrose overnight, and embedded in an OCT compound. Capase-3/7-stained cells in the bladder tumor organoids were counted based on green fluorescence signals, and dose-response curves were generated using GraphPad Prism ver.6. […]

| Compound | tumor growth [1] | growth of reconstituted tumor organoids of basal subtypes ([2]; basal P-2 and P-3, in the presence of tumor stroma) | response of basal subtype tumor organoids ([2]; basal subtype, without tumor stroma) | response of reconstituted luminal tumor organoids ([2]; reconstituted luminal tumor organoids) | proliferation of epithelial cells and stromal cells [3] | proliferation of epithelial cells and stromal cells [4] | tumor growth ([5]; bioprinted basal, only in the presence of stroma) | tumor growth ([5]; bioprinted, luminal P-1 tumor, regardless of tumor stroma) | tumor cell apoptosis response ([6]; reconstituted with tumor stroma) | tumor cell apoptosis ([6]; without tumor stroma) |
| --- | --- | --- | --- | --- | --- | --- | --- | --- | --- | --- |
| CNC1CCC(N(Cc2cccc(-c3ccncc3)c2)C(=O)c2sc3ccccc3c2Cl)CC1 (stereo not drawn) [SAG] | inhibited | significantly reduced | do not respond | do not respond | increases | significant increase | significantly inhibited | does not exhibit a significant change | – | – |
| CS(=O)(=O)c1ccc(C(=O)Nc2ccc(Cl)c(-c3ccccn3)c2)c(Cl)c1 [Vismodegib] | – | – | – | – | decreases; also recorded: reduces | significant decrease | – | – | – | – |
| N.N.[Cl][Pt][Cl] [cisplatin] | – | – | – | – | – | – | – | – | significantly reduced | increased |
